Assay results published in patent publication US7572770B2, “Use of an interleukin 1 receptor antagonist and/or pyrrolidinedithiocarbamate for the treatment or prophylaxis of type 2 diabetes” (University of Zurich, priority 2002, dated 2009).

Columns and labels:
[1] = tested on: human islets β-cells; assay: Detection of IL-1β expressing β-cells in cultured human islets (double immunostaining); format: cell-based; settings: 33.3 mM glucose, 4 days, co-incubation with IL-1Ra
Description: Islet isolation and culture. Islets were isolated from pancreases of eleven organ donors at the Department of Surgery, University of Geneva Medical Center, as described (32-34). The islet purity was >95%, as judged by dithizone staining (if this degree of purity was not primarily achieved by routine isolation, islets were handpicked). […] For long-term in vitro studies, the islets were cultured on extracellular matrix-coated plates derived from bovine corneal endothelial cells (Novamed Ltd., Jerusalem, Israel), allowing the cells to attach to the dishes and spread, preserving their functional integrity (7;35). Islets were cultured in CMRL 1066 medium containing 100 U/ml penicillin, 100 μg/ml streptomycin and 10% fetal calf serum (Gibco, Gaithersburg, Md.), hereinafter referred to as culture medium. Two days after plating, when most islets were attached and began to flatten, the medium was changed to culture medium containing 5.5, 11.1 or 33.3 mM glucose. In some experiments, islets were additionally cultured with 2 ng/ml recombinant human IL-1β, 1000 U/ml recombinant human IFNγ (ReproTech EC Ltd, London, UK), 500 ng/ml IL-1β receptor antagonist (IL-1Ra) (R&D Systems Inc., Minneapolis, Minn.), 1 ng/ml membrane bound Fas-ligand (FasL) (36) (upstate biotechnology, Lake Placid, N.Y.) or with 100 μM pyrrolidinedithiocarbamate (PDTC; Sigma; 2 h per 2 d of culture). […]

[2] = target: T1, type I IL-1R (Homo sapiens, UniProt P14778); settings: read-out: Kd, binding to type I IL-1R; cited from earlier work
T1 sequence (P14778 18-569): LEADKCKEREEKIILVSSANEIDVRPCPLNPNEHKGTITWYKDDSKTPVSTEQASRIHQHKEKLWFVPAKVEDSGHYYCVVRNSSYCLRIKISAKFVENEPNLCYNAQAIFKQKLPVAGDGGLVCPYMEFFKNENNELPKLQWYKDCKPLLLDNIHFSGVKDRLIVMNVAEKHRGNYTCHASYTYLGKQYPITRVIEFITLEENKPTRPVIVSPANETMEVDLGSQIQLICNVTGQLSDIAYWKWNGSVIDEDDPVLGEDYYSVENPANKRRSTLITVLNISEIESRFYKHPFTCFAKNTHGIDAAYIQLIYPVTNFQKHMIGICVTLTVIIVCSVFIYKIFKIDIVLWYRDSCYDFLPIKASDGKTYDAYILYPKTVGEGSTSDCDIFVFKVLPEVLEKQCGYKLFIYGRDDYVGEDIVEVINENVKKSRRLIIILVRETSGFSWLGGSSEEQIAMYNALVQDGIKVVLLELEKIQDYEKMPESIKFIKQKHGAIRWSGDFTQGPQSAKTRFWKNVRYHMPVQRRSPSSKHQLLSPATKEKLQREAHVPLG

[3] = tested on: IL-1β; assay: IL-1β release from human blood monocytes exposed to leptin; format: cell-based
Description: Human blood monocytes were isolated as described previously (37), cultured in RPMI 1640 (Invitrogen) containing 100 U/ml penicillin, 100 μg/ml streptomycin and 10% fetal calf serum and exposed to 10 or 500 nM leptin.
Cytokine release. Cytokine release was evaluated in the culture medium collected before the termination of each experiment using human IL-1β and IL-1Ra ELISA kits (R&D Systems Inc.).

| Substance | IL-1β positive β-cells (double immunostaining) [1] | Kd [2] | IL-1β release from peripheral blood monocytes ([3]; 15 hours) | IL-1β release from peripheral blood monocytes ([3]; 48 hours) |
| --- | --- | --- | --- | --- |
| Interleukin 1 receptor antagonist [IL-1Ra] | displayed similar results | 0.2 nM |  |  |
| leptin: rh leptin (PeproTech); protein encoded by the ob gene |  |  | increased IL-1β release | did not significantly affect IL-1β release |
